Data taken from patent publication US11851426B2, “Bicyclic amines as CDK2 inhibitors” (Incyte Corporation, priority 2019, dated 2023).

Target: CDK2/Cyclin E1 (Homo sapiens (Human), UniProt P24941)
Assay: CDK2/Cyclin E1 HTRF enzyme activity assay
Format: biochemical
Conditions: 1 mM ATP; CDK2/Cyclin E1 0.25 nM; 60 minutes at room temperature
Method: Example A. CDK2/Cyclin E1 HTRF Enzyme Activity Assay
CDK2/Cyclin E1 enzyme activity assays utilize full-length human CDK2 co-expressed as N-terminal GST-tagged protein with FLAG-Cyclin E1 in a baculovirus expression system (Carna Product Number 04-165). Assays were conducted in white 384-well polystyrene plates in a final reaction volume of 8 μL. CDK2/Cyclin E1 (0.25 nM) was incubated with the compounds of the Examples (40 nL serially diluted in DMSO) in the presence of ATP (50 μM or 1 mM) and 50 nM ULight™-labeled eIF4E-binding protein 1 (THR37/46) peptide (PerkinElmer) in assay buffer (containing 50 mM HEPES pH 7.5, 1 mM EGTA, 10 mM MgCl2, 2 mM DTT, 0.05 mg/mL BSA, and 0.01% Tween 20) for 60 minutes at room temperature. The reactions were stopped by the addition of EDTA and Europium-labeled anti-phospho-4E-BP1 antibody (PerkinElmer), for a final concentration of 15 mM and 1.5 nM, respectively. HTRF signals were read after 1 hour at room temperature on a PHERAstar FS plate reader (BMG Labtech). Data was analyzed with IDBS XLFit and GraphPad Prism 5.0 software using a three or four parameter dose response curve to determine IC50 for each compound.

| Structure (SMILES) | IC50 [nM] |
| --- | --- |
| C[C@@H]1CN(S(C)(=O)=O)CC[C@@H]1Nc1nc2ccc(-c3cn[nH]c3)c(OC3CCC3)n2n1 [Example 69, 5-Cyclobutoxy-N-((3R,4S)-3-methyl-1-(methylsulfonyl)piperidin-4-yl)-6-(1H-pyrazol-4-yl)-[1,2,4]triazolo[1,5-a]pyridin-2-amine] | ≤ 20 |
| CS(=O)(=O)N1CCC(Nc2nc3cnc(-c4cn[nH]c4)c(OC4CC(F)(F)C4)n3n2)CC1 [Example 118, 5-(3,3-Difluorocyclobutoxy)-N-(1-(methylsulfonyl)piperidin-4-yl)-6-(1H-pyrazol-4-yl)-[1,2,4]triazolo[1,5-a]pyrazin-2-amine] | ≤ 20 |
| C[C@@H]1CN(S(C)(=O)=O)CC[C@@H]1Nc1nc2cnc(-c3cn[nH]c3)c(OC3CCC3)n2n1 [Example 100, 5-Cyclobutoxy-N-((3R,4S)-3-methyl-1-(methylsulfonyl)piperidin-4-yl)-6-(1H-pyrazol-4-yl)-[1,2,4]triazolo[1,5-a]pyrazin-2-amine] | ≤ 20 |
| CCSc1c(-c2cn[nH]c2)ncc2nc(NC3CCN(S(C)(=O)=O)CC3)nn12 [Example 123, 5-(Ethylthio)-N-(1-(methylsulfonyl)piperidin-4-yl)-6-(1H-pyrazol-4-yl)-[1,2,4]triazolo[1,5-a]pyrazin-2-amine] | ≤ 20 |
| C[C@@H]1CN(S(=O)(=O)c2cn(C)cn2)CC[C@@H]1Nc1nc2ccc(-c3cn[nH]c3)c(N3CCCCC3)n2n1 [Example 86, N-((3R,4S)-3-Methyl-1-((1-methyl-1H-imidazol-4-yl)sulfonyl)piperidin-4-yl)-5-(piperidin-1-yl)-6-(1H-pyrazol-4-yl)-[1,2,4]triazolo[1,5-a]pyridin-2-amine] | ≤ 20 |
| C[C@@H]1CN(S(=O)(=O)c2cn(C)cn2)CC[C@@H]1Nc1nc2cnc(-c3cn[nH]c3)c(OC3CCC3)n2n1 [Example 95, 5-Cyclobutoxy-N-((3R,4S)-3-methyl-1-((1-methyl-1H-imidazol-4-yl)sulfonyl)piperidin-4-yl)-6-(1H-pyrazol-4-yl)-[1,2,4]triazolo[1,5-a]pyrazin-2-amine] | ≤ 20 |
| CS(=O)(=O)N1CCC(Nc2nc3c(Nc4ccccc4)c(-c4cn[nH]c4)ccn3n2)CC1 [Example 24, N^2-(1-(methylsulfonyl)piperidin-4-yl)-N^8-phenyl-7-(1H-pyrazol-4-yl)-[1,2,4]triazolo[1,5-a]pyridine-2,8-diamine] | ≤ 20 |
| C[C@@H]1CN(S(C)(=O)=O)CC[C@@H]1Nc1nc2ccc(-c3cn[nH]c3)c(OC3CCOCC3)n2n1 [Example 98, N-((3R,4S)-3-Methyl-1-(methylsulfonyl)piperidin-4-yl)-6-(1H-pyrazol-4-yl)-5-((tetrahydro-2H-pyran-4-yl)oxy)-[1,2,4]triazolo[1,5-a]pyridin-2-amine] | ≤ 20 |
| CCS(=O)(=O)N1CC[C@H](Nc2nc3cnc(-c4cn[nH]c4)c(OC4CCC4)n3n2)[C@H](C)C1 [Example 93, 5-Cyclobutoxy-N-((3R,4S)-1-(ethylsulfonyl)-3-methylpiperidin-4-yl)-6-(1H-pyrazol-4-yl)-[1,2,4]triazolo[1,5-a]pyrazin-2-amine] | ≤ 20 |
| CCOc1c(-c2cn[nH]c2)ccn2nc(N[C@H]3CCN(S(=O)(=O)CCCN4CCCCC4)C[C@H]3C)nc12 [Example 27, 8-ethoxy-N-((3R,4S)-3-methyl-1-((3-(piperidin-1-yl)propyl)sulfonyl)piperidin-4-yl)-7-(1H-pyrazol-4-yl)-[1,2,4]triazolo[1,5-a]pyridin-2-amine] | ≤ 20 |
| CS(=O)(=O)N1CCC(Nc2nc3ccc(-c4cn[nH]c4)c(OCC4CC4)n3n2)CC1 [Example 82, 5-(Cyclopropylmethoxy)-N-(1-(methylsulfonyl)piperidin-4-yl)-6-(1H-pyrazol-4-yl)-[1,2,4]triazolo[1,5-a]pyridin-2-amine] | ≤ 20 |
| CCS(=O)(=O)N1CC[C@H](Nc2nc3ccc(-c4cn[nH]c4)c(N4CCCCC4)n3n2)[C@H](C)C1 [Example 84, N-((3R,4S)-1-(Ethylsulfonyl)-3-methylpiperidin-4-yl)-5-(piperidin-1-yl)-6-(1H-pyrazol-4-yl)-[1,2,4]triazolo[1,5-a]pyridin-2-amine] | ≤ 20 |
| CCS(=O)(=O)N1CC[C@H](Nc2nc3ccc(-c4cn[nH]c4)c(OC(C)C)n3n2)[C@H](C)C1 [Example 96, N-((3R,4S)-1-(Ethylsulfonyl)-3-methylpiperidin-4-yl)-5-isopropoxy-6-(1H-pyrazol-4-yl)-[1,2,4]triazolo[1,5-a]pyridin-2-amine] | ≤ 20 |

Further lines, results first:

| IC50 [nM] | Structure (SMILES) |
| --- | --- |
| ≤ 20 | CC(C)CCOc1c(-c2cn[nH]c2)ncc2nc(N[C@H]3CCN(S(C)(=O)=O)C[C@H]3C)nn12 [Example 116, 5-(Isopentyloxy)-N-((3R,4S)-3-methyl-1-(methylsulfonyl)piperidin-4-yl)-6-(1H-pyrazol-4-yl)-[1,2,4]triazolo[1,5-a]pyrazin-2-amine] |
| ≤ 20 | C[C@@H]1CN(S(C)(=O)=O)CC[C@@H]1Nc1nc2c(OC3CCC(F)(F)CC3)c(-c3cn[nH]c3)ccn2n1 [Example 39, 8-((4,4-difluorocyclohexyl)oxy)-N-((3R,4S)-3-methyl-1-(methylsulfonyl)piperidin-4-yl)-7-(1H-pyrazol-4-yl)-[1,2,4]triazolo[1,5-a]pyridin-2-amine] |
| ≤ 20 | CS(=O)(=O)N1CCC(Nc2nc3cnc(-c4cn[nH]c4)c(N4CC[C@H](C(F)F)C4)n3n2)CC1 [Example 134, (S)-5-(3-(Difluoromethyl)pyrrolidin-1-yl)-N-(1-(methylsulfonyl)piperidin-4-yl)-6-(1H-pyrazol-4-yl)-[1,2,4]triazolo[1,5-a]pyrazin-2-amine] |
| ≤ 20 | CCN(CC)CCCS(=O)(=O)N1CC[C@H](Nc2nc3c(OC(C)C)c(-c4cn[nH]c4)ncn3n2)[C@H](C)C1 [Example 60, N-((3R,4S)-1-((3-(Diethylamino)propyl)sulfonyl)-3-methylpiperidin-4-yl)-8-isopropoxy-7-(1H-pyrazol-4-yl)-[1,2,4]triazolo[1,5-c]pyrimidin-2-amine] |
| ≤ 20 | [2H]C(C)(C)Oc1c(-c2cn[nH]c2)ncc2nc(NC3CCN(S(C)(=O)=O)CC3)nn12 [Example 142, N-(1-(Methylsulfonyl)piperidin-4-yl)-5-((propan-2-yl-2-d)oxy)-6-(1H-pyrazol-4-yl)-[1,2,4]triazolo[1,5-a]pyrazin-2-amine] |
| ≤ 20 | CC(C)Oc1c(-c2cn[nH]c2)ncn2nc(N[C@H]3CCN(S(=O)(=O)CCCN4CCN(C)CC4)C[C@H]3C)nc12 [Example 61, 8-Isopropoxy-N-((3R,4S)-3-methyl-1-((3-(4-methylpiperazin-1-yl)propyl)sulfonyl)piperidin-4-yl)-7-(1H-pyrazol-4-yl)-[1,2,4]triazolo[1,5-c]pyrimidin-2-amine] |
| ≤ 20 | CS(=O)(=O)N1CCC(Nc2nc3cnc(-c4cn[nH]c4)cn3n2)CC1 [Example 8, N-(1-(methylsulfonyl)piperidin-4-yl)-6-(1H-pyrazol-4-yl)-[1,2,4]triazolo[1,5-a]pyrazin-2-amine] |
| ≤ 20 | [2H]C(C)(C)Oc1c(-c2cn[nH]c2)ncc2nc(N[C@H]3CCN(S(C)(=O)=O)C[C@H]3C)nn12 [Example 137, N-((3R,4S)-3-Methyl-1-(methylsulfonyl)piperidin-4-yl)-5-((propan-2-yl-2-d)oxy)-6-(1H-pyrazol-4-yl)-[1,2,4]triazolo[1,5-a]pyrazin-2-amine] |
| ≤ 20 | CC1CC(Oc2c(-c3cn[nH]c3)ncc3nc(N[C@H]4CCN(S(C)(=O)=O)C[C@H]4C)nn23)CCO1 (stereo partly drawn) [Example 112, N-((3R,4S)-3-Methyl-1-(methylsulfonyl)piperidin-4-yl)-5-((2-methyltetrahydro-2H-pyran-4-yl)oxy)-6-(1H-pyrazol-4-yl)-[1,2,4]triazolo[1,5-a]pyrazin-2-amine] |
| ≤ 20 | CCCOc1c(-c2cn[nH]c2)ccc2nc(N[C@H]3CCN(S(C)(=O)=O)C[C@H]3C)nn12 [Example 71, N-((3R,4S)-3-Methyl-1-(methylsulfonyl)piperidin-4-yl)-5-propoxy-6-(1H-pyrazol-4-yl)-[1,2,4]triazolo[1,5-a]pyridin-2-amine] |
| ≤ 20 | CC(C)Oc1c(-c2cn[nH]c2)ncn2nc(N[C@H]3CCN(S(=O)(=O)CCCN4CCCCC4)C[C@H]3C)nc12 [Example 58, 8-Isopropoxy-N-((3R,4S)-3-methyl-1-((3-(piperidin-1-yl)propyl)sulfonyl)piperidin-4-yl)-7-(1H-pyrazol-4-yl)-[1,2,4]triazolo[1,5-c]pyrimidin-2-amine] |
| ≤ 20 | CS(=O)(=O)N1CCC(Nc2nc3cnc(-c4cn[nH]c4)c(N4CCC[C@@H](F)C4)n3n2)CC1 [Example 128, (R)-5-(3-Fluoropiperidin-1-yl)-N-(1-(methylsulfonyl)piperidin-4-yl)-6-(1H-pyrazol-4-yl)-[1,2,4]triazolo[1,5-a]pyrazin-2-amine] |
| ≤ 20 | C[C@@H]1CN(S(C)(=O)=O)CC[C@@H]1Nc1nc2ccc(-c3cn[nH]c3)c(OCC(F)(F)C(F)F)n2n1 [Example 73, N-((3R,4S)-3-Methyl-1-(methylsulfonyl)piperidin-4-yl)-6-(1H-pyrazol-4-yl)-5-(2,2,3,3-tetrafluoropropoxy)-[1,2,4]triazolo[1,5-a]pyridin-2-amine] |
| ≤ 20 | CS(=O)(=O)N1CCC(Nc2nc3c(-c4cccc(C(F)(F)F)c4)c(-c4cn[nH]c4)ccn3n2)CC1 [Example 26, N-(1-(methylsulfonyl)piperidin-4-yl)-7-(1H-pyrazol-4-yl)-8-(3-(trifluoromethyl)phenyl)-[1,2,4]triazolo[1,5-a]pyridin-2-amine] |
